Measurements published in patent US11821895B2, “Functional cortical organoids, methods of making, and uses thereof” (priority 2017, dated 2023).

Test system: cortical organoids
Assay: Pharmacological perturbation of network activity in cortical organoids, multi-electrode array (MEA) recordings
Assay type: cell-based, human

Row | Structure (SMILES) | number of bursts / burst activity | synchronous activity / synchrony indexes | neuronal electrical activity | network bursts (synchrony) | number of network events
1 | NC(CCCP(=O)(O)O)C(=O)O (stereo not drawn) [AP5] | significantly reducing the number of bursts | extinction of synchronous activity | – | – | –
2 | N#Cc1cc2[nH]c(=O)c(=O)[nH]c2cc1[N+](=O)[O-] [CNQX] | significantly reducing the number of bursts | extinction of synchronous activity | – | – | –
3 | NC1=N[C@H](O)[C@H]2[C@H]3O[C@]4(O)O[C@@H]([C@@H](O)[C@@]2(N1)[C@@H]4O)[C@]3(O)CO [TTX, tetrodotoxin] | – | – | blocked | – | –
4 | NCC(CC(=O)O)c1ccc(Cl)cc1 (stereo not drawn) [baclofen] | significantly reducing the number of bursts | extinction of synchronous activity | – | reversibly extinguish the network bursts (synchrony) | completely abolishes synchronized network events
5 | NCc1cc(=O)[nH]o1 [muscimol] | significantly reducing the number of bursts | extinction of synchronous activity | – | reversibly extinguish the network bursts (synchrony) | –
